{
  "source": "patent US10231958B2",
  "about": "“Methods and compositions for enhancing chemotherapy” (THE BOARD OF REGENTS OF THE UNIVERSITY OF TEXAS SYSTEM, priority 2015, dated 2019)",
  "key": {"[1]": {"system": "Kc167 cells, MEFs, and MDA-MB231 breast cancer cells", "assay": "Cell viability (CellTiter-Glo)", "assay_type": "cell-based, D. melanogaster, mouse, human", "details": "Drosophila melanogaster, MDA-MB-231, 24 h", "protocol": "The D. melanogaster embryonic cell line Kc167 was grown in Schneider medium (Invitrogen, Carlsbad, Calif.) supplemented with 10% heat-inactivated (56° C./30 min) fetal bovine serum (FBS), penicillin and streptomycin at 22° C. in a humidified incubator. Primary MEFs were obtained by harvesting 14.5-day C57BL/6J embryos as previously described (Ravi et al., 2009, PLoS Genet 5, e1000527). Briefly, fetal liver and head were removed and the remainder of the embryo was mechanically disaggregated in plating medium. A suspension of single-cells was plated in DMEM (plus 10% FBS, 100 U/mL penicillin and 100 μg/mL streptomycin). MEFs were grown for two passages before freezing aliquots. Aliquots were taken and expanded as needed for each experiment. MDA-MB231, SkBr3 and MCF-7 breast cancer cells lines were obtained from ATCC and grown in DMEM supplemented with 10% inactivated FBS plus antibiotics in a 37° C. humidified incubator at […] atmosphere. Cells were kept and treated in the exponential phase of growing (60-70% confluence). […] DMSO concentrations were kept to a maximum of 0.1% for all experiments. Cell viability was assessed using CellTiter-Glo Luminescent Viability assay (Promega) in 384 or 96-well plates white-border clear-bottom plated cells. For caspase-3/7 activity, Caspase-Glo 3/7 Assay kits were used (Promega). For caspase assays, the cells were seeded in 96-well plates and assayed directly after treatments. Caspase-3/7 inhibitor (Z-DEVD-fmk) was used to ensure assay specificity. LDH release into culture medium was quantified by Cytotox-96 Non-Radioactive assay kit in agreement with instructions (Promega)."}, "Kc167 cells": {"system": "Kc167 cells", "assay": "Metabolomics of GSH metabolites in fly cells", "assay_type": "cell-based, D. melanogaster", "details": "MMS 40 μg/mL", "protocol": "The 2.4×10^6 Kc167 or 2×10^6 MEFs were seeded using complete growth medium on Day 0 in a T-175 cell culture flask and were allowed to grow for three days. After treatments with MMS (40 μg/mL), cells were harvested and centrifuged at 8 and 24 hours, and washed using ice-cold PBS. The cell numbers were adjusted to 90×10^6 (Kc167) or 24×10^6 (MEF) and provided as 100 μL of packed cell pellet for metabolic profiling. Metabolomic profiling and data analysis was provided through mView service performed by Metabolon Inc., Durham, N.C. Five biological replicates of each group were used for analysis at each time point. In addition, detailed changes in nucleotide pools were measured in a separate set of experiments. Nucleotide quantification and Metabolomics Pathway Enrichment Analyses were performed through MetaboAnalyst 2.0 (Xia et al., 2012, Nucleic Acids Res 40(Web Server issue), W127-33; Xia et al., 2009, Nucleic Acids Res 37(Web Server issue), W652-60)."}, "[2]": {"system": "NRF2, GCLC, ER stress markers", "assay": "Western blot of NRF2, GCLC and ER stress markers", "assay_type": "cell-based", "details": "MEFs, MDA-MB231, MCF-7; 8-12 h", "protocol": "Western blot. Protein lysates were prepared using RIPA buffer containing 5% sodium deoxycholate, 0.1% SDS, 0.1% Igepal in PBS with a cocktail of protease and phosphatase inhibitors (1 mM PMSF, 1 mM sodium orthovanadate, 1 mM NaF, and 30 μL/mL aprotinin (Sigma-Aldrich, USA)) and clarified by centrifugation. Protein concentration was determined using Bradford Protein Assay Reagent (Biorad, Hercules, Calif.). Equal amounts of protein were resolved using 8-12% SDS polyacrylamide gel, transferred onto nitrocellulose membranes (Hybond-ECL, GE Healthcare Lifesciences, Piscataway, N.J.) and detected using Lumiglo system (Cell Signaling Technology, Calif.) and x-ray films. Primary antibodies included COX-2 (#4842), NRF2 (D1C9), p-JNK1/2 (Thr183/Tyr185, #4671), p-p38 (Thr180/Tyr182, #9216), p-ERK1/2 (Thr202/Tyr204, #9101), BiP/GRP78 (C50B12), IRE1a (14C10), CHOP (L63F7) and PERK (D11A8) from Cell Signaling Technology; p-IRE1a (Ser724; NB100-2323) from Novus Biologicals; GCLC (Ab41463), beta-actin (ab8227) and ATF6 (Ab37149) from Abcam; p-PERK (Thr 981, sc-32577) and ATF3 (C19) were purchased from Santa Cruz. All primary antibodies were used at 1:1000 dilutions and secondary antibodies were 1:3000 in TBS-T with 5% BSA."}},
  "data": [
    {"smiles": "COS(C)(=O)=O", "note": "[MMS, methyl-methanesulfonate]", "values": [
      {"measurement": "IC90", "setting": "[1]", "result": 80, "unit": "µg/mL"},
      {"measurement": "increase in methyl-GSH", "setting": "Kc167 cells", "result": 300, "unit": "fold"},
      {"measurement": "NRF2 and GCLC protein levels", "setting": "[2]", "result": "rapidly increased in total and nuclear fractions"}
    ]}
  ]
}
